Reference: patent publication US20260364079A1 (Principia Biopharma Inc., priority 2022, published 2026)

Tests used:
other TEC family members = assay: preclinical assays of binding persistence, other TEC family members; settings: over time
Pemphigus foliaceus = assay: treatment of dogs with newly diagnosed, naturally occurring Pemphigus foliaceus; type: in vivo
[1] = humans, oral administration; cited from earlier work

Structure (SMILES): CC(C)(C=C(C#N)C(=O)N1CCC[C@@H](n2nc(-c3ccc(Oc4ccccc4)cc3F)c3c(N)ncnc32)C1)N1CCN(C2COC2)CC1 (mixture of isomers) [rilzabrutinib, (R)-2-[3-[4-amino-3-(2-fluoro-4-phenoxy-phenyl)pyrazolo[3,4-d]pyrimidin-1-yl]piperidine-1-carbonyl]-4-methyl-4-[4-(oxetan-3-yl)piperazin-1-yl]pent-2-enenitrile]
- persistence of binding to other TEC family members (other TEC family members): decayed rapidly over time
- cases with disease safely controlled without the need for corticosteroid (Pemphigus foliaceus): 4 of 4
- pharmacokinetics variability [1]: variable pharmacokinetics
